Reference: ChEMBL document CHEMBL1143475, “Investigation of factor Xa inhibitors containing non-amidine S1 elements” (Bioorg Med Chem Lett, 2005)

Legend:
[1] = molecular target: Coagulation factor X (Homo sapiens) (UniProt P00742); experiment: Binding affinity as apparent association constant for human coagulation factor X
[2] = molecular target: Thrombin and coagulation factor X (Homo sapiens) (UniProt P00734+P00742); experiment: Anticoagulant potency against double prothrombin time; type: functional
[3] = molecular target: Prothrombin (Homo sapiens) (UniProt P00734); experiment: Binding affinity as apparent association constant for Coagulation factor II
[4] = molecular target: Tissue-type plasminogen activator (Homo sapiens) (UniProt P00750); experiment: Binding affinity as apparent association constant for Tissue plasminogen activator
[5] = molecular target: Plasminogen (Homo sapiens) (UniProt P00747); experiment: Binding affinity as apparent association constant for Plasmin
[6] = molecular target: Urokinase-type plasminogen activator (Homo sapiens) (UniProt P00749); experiment: Binding affinity as apparent association constant for Urokinase
[7] = molecular target: Serine protease 1 (Homo sapiens) (UniProt P07477); experiment: Binding affinity as apparent association constant for Trypsin
Serine protease 1 (Homo sapiens), sequence (P07477 whole entry): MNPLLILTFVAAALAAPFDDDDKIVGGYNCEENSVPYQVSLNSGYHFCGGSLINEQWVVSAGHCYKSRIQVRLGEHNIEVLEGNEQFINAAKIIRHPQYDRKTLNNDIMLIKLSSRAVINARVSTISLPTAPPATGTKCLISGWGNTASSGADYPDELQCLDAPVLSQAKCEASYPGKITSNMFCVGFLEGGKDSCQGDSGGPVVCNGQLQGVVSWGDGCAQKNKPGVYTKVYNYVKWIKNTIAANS

Thrombin and coagulation factor X (Homo sapiens), sequence (P00742 whole entry, looked up, other chains not shown): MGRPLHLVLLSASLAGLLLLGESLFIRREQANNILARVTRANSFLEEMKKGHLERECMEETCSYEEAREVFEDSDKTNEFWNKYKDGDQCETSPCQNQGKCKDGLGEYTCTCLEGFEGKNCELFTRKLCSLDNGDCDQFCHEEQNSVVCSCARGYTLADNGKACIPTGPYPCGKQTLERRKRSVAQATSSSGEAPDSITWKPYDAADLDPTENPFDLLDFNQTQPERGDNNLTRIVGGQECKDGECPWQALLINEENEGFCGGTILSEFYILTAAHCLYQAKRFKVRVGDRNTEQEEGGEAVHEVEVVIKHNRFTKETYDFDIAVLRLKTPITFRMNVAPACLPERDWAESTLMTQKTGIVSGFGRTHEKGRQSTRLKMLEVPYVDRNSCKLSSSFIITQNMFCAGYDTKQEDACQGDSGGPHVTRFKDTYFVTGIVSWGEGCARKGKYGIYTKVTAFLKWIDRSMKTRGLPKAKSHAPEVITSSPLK
Coagulation factor X (Homo sapiens), sequence (P00742 41-179 limits assumed): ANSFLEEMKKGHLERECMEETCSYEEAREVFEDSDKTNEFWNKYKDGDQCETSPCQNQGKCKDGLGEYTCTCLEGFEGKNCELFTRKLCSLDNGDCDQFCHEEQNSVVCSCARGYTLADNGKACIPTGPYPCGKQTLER
Coagulation factor X (Homo sapiens), sequence (P00742 235-488 limits assumed): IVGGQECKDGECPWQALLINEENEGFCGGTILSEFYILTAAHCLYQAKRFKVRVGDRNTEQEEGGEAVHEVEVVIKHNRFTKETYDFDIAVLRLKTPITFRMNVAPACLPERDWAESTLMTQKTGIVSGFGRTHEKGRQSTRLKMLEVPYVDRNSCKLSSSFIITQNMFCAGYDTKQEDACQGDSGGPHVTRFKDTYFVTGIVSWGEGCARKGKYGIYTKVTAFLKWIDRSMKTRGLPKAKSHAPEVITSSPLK
Tissue-type plasminogen activator (Homo sapiens), sequence (P00750 36-562 limits assumed): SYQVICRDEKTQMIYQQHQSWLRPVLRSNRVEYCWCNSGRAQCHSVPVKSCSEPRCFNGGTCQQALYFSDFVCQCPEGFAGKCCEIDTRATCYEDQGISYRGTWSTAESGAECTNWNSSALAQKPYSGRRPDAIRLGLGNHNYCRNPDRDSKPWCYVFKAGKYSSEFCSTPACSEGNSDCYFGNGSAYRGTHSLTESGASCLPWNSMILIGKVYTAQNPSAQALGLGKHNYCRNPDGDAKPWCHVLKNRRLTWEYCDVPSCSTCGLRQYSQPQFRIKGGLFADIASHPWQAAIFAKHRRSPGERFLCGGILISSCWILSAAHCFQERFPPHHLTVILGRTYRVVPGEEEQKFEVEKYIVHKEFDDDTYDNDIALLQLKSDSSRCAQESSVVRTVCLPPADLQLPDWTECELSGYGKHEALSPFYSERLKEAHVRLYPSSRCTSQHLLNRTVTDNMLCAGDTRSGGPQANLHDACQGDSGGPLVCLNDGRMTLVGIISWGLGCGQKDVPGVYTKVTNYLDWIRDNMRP
Plasminogen (Homo sapiens), sequence (P00747 97-580 limits assumed): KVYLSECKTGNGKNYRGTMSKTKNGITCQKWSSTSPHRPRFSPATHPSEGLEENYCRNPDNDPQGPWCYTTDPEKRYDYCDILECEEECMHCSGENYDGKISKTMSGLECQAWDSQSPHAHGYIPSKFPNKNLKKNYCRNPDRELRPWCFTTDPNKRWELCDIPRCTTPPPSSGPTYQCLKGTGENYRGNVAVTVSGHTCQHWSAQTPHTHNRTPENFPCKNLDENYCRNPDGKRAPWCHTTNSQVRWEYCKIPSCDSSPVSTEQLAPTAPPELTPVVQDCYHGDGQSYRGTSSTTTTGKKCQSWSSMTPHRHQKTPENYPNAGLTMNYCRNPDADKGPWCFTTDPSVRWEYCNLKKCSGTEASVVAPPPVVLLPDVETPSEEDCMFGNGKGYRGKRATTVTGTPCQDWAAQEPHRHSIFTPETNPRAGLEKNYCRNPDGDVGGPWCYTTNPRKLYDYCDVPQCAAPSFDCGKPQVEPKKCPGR
Plasminogen (Homo sapiens), sequence (P00747 581-810 limits assumed): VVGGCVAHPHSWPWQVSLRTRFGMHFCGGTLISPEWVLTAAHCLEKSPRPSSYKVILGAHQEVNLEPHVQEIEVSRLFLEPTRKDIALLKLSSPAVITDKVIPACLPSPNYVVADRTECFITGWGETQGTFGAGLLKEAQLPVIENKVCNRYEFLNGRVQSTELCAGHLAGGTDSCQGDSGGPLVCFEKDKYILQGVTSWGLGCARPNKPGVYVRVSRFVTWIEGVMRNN

| Compound | K ass [1] [L/mol] | PT [2] [µM] | further results |
| --- | --- | --- | --- |
| Nc1cccc(C(=O)Nc2ccccc2NC(=O)OCC2CCN(c3ccncc3)CC2)c1 | 5.1e+06 | 8 |  |
| O=C(Nc1ccccc1NC(=O)c1ccccc1Cl)OCC1CCN(c2ccncc2)CC1 | 300000 |  |  |
| O=C(Nc1ccccc1NC(=O)c1ccc(I)cc1)OCC1CCN(c2ccncc2)CC1 | 1.4e+07 | 6 |  |
| COc1ccc(C(=O)Nc2ccccc2NC(=O)OCC2CCN(c3ccncc3)CC2)cc1 | 1.9e+07 | 1.9 |  |
| O=C(Nc1ccccc1NC(=O)c1ccc(Cl)cc1)OCC1CCN(c2ccncc2)CC1 | 3.5e+07 | 1.9 | Ka [3]: 20000 L/mol; Ka [4]: < 10000 L/mol; Ka [5]: < 10000 L/mol; Ka [6]: < 10000 L/mol; Ka [7]: < 10000 L/mol |
| O=C(Nc1ccccc1NC(=O)C1C=CCCC1)OCC1CCN(c2ccncc2)CC1 (stereo unspecified) | 200000 |  |  |
| COc1ccc(C(=O)Nc2ccccc2NC(=O)c2ccc(C(C)(C)C)cc2)cc1 | 7e+06 | > 50 |  |
| O=C(Nc1ccccc1NC(=O)c1ccc(OC(F)F)cc1)OCC1CCN(c2ccncc2)CC1 | 5e+06 | 6 |  |
| O=C(Nc1ccccc1NC(=O)c1ccc(F)cc1)OCC1CCN(c2ccncc2)CC1 | 4.6e+06 |  |  |
| Cc1cccc(C(=O)Nc2ccccc2NC(=O)OCC2CCN(c3ccncc3)CC2)c1 | 5.9e+06 |  |  |
| COc1ccccc1C(=O)Nc1ccccc1NC(=O)OCC1CCN(c2ccncc2)CC1 | 20000 |  |  |
| O=C(Nc1ccccc1NC(=O)c1ccc(Cl)o1)OCC1CCN(c2ccncc2)CC1 | 700000 |  |  |
| O=C(Nc1ccccc1NC(=O)C1=CCCCC1)OCC1CCN(c2ccncc2)CC1 | 900000 |  |  |
| O=C(Nc1ccccc1NC(=O)c1cccc(Cl)c1Cl)OCC1CCN(c2ccncc2)CC1 | 1.9e+07 | 5 |  |
| O=C(Nc1ccccc1NC(=O)c1cccc(O)c1)OCC1CCN(c2ccncc2)CC1 | 1e+06 |  |  |
| O=C(Nc1ccccc1NC(=O)c1ccc2c(c1)CCO2)OCC1CCN(c2ccncc2)CC1 | 600000 |  |  |

| Compound | K ass [1] [L/mol] | PT [2] [µM] | further results |
| --- | --- | --- | --- |
| O=C(Nc1ccccc1NC(=O)c1cccc(Cl)c1)OCC1CCN(c2ccncc2)CC1 | 4.1e+06 | 12 |  |
| COc1ccc(C(=O)Nc2ccccc2NC(=O)C2CCN(c3ccncc3)CC2)cc1 | 2e+06 | 9.7 |  |
| O=C(Nc1ccccc1NC(=O)c1ccc(Br)cc1)OCC1CCN(c2ccncc2)CC1 | 3.8e+07 | 1.8 |  |
| O=C(Nc1ccccc1NC(=O)c1cccc(F)c1)OCC1CCN(c2ccncc2)CC1 | 2.5e+06 | 17 |  |
| O=C(Nc1ccccc1NC(=O)C1CCCCC1)OCC1CCN(c2ccncc2)CC1 | 40000 |  |  |
| O=C(Nc1ccccc1NC(=O)C1=CCCC1)OCC1CCN(c2ccncc2)CC1 | 700000 |  |  |
| N#Cc1ccc(C(=O)Nc2ccccc2NC(=O)OCC2CCN(c3ccncc3)CC2)cc1 | 600000 |  |  |
| Cc1ccc(C(=O)Nc2ccccc2NC(=O)OCC2CCN(c3ccncc3)CC2)cc1Cl | 2.3e+06 | 22 |  |
| COc1cccc(C(=O)Nc2ccccc2NC(=O)OCC2CCN(c3ccncc3)CC2)c1 | 3.3e+06 | 10 |  |
| CC(C)(C)c1ccc(C(=O)Nc2ccccc2NC(=O)c2cccc(C(=N)N)c2)cc1 | 2.42e+08 | 0.9 |  |
| O=C(Nc1ccccc1NC(=O)c1ccccc1)OCC1CCN(c2ccncc2)CC1 | 1.6e+06 |  |  |
| Cc1ccc(C(=O)Nc2ccccc2NC(=O)OCC2CCN(c3ccncc3)CC2)cc1 | 6.3e+06 | 8 |  |
| COc1ccc(C(=O)Nc2ccccc2NC(=O)OCC2CCN(c3ccncc3)CC2)cc1F | 46 | 1.1 |  |
| O=C(Nc1ccccc1NC(=O)c1ccc(Cl)s1)OCC1CCN(c2ccncc2)CC1 | 3.3e+07 | 2.6 |  |
| O=C(Nc1ccccc1NC(=O)c1ccc2cc[nH]c2c1)OCC1CCN(c2ccncc2)CC1 | 5.4e+07 | 1.6 |  |
| Cc1ccc(C(=O)Nc2ccccc2NC(=O)OCC2CCN(c3ccncc3)CC2)cc1F | 5.8e+06 | 7 |  |
